Reference: US8101754B2, “Triazole compounds suitable for treating disorders that respond to modulation of the dopamine D3 receptor” (Abbott GmbH & Co. KG, priority 2004, dated 2012)
Read-outs that look alike come from different tables or passages of the source.

Legend:
[1] = Concentration of compounds in plasma and brain following oral dosing; type: in vivo, Sprague-Dawley rats; details: male rats, 10 mg/kg orally by gavage
Experimental: 2. Determination of the Concentration of Compounds in Plasma and Brain Following Dosing of Compounds in Animals
Male Sprague-Dawley rats were used in this study (2 to 4 per experiment). The animals were fasted overnight prior to dosing and throughout the duration of the study but were permitted water ad libitum.
Each rat received a 10 mg/kg (5 mL/kg) dose orally by gavage. At 0.5, 3 and 8 hours after drug administration, three animals were put under deep anesthesia using isoflurane and euthanized by bleeding (cardiac puncture) under deep isoflurane anesthesia. EDTA blood samples and brain tissue will be collected from each rat. Upon collection, the samples were promptly placed in an ice bath, and within 2 hours after sample collection, the blood was centrifuged at about 4° C. The resulting brain and plasma samples were placed in clean glass tubes and stored in a freezer until analysis.
The plasma samples were assayed for parent compound using appropriate liquid chromatography—mass spectrometry procedures. The results for compounds I are given in tables 2, and illustrate the high brain concentrations attainable with the compounds of the invention.

[2] = molecular target: T1, human dopamine D2L receptors (long isoform) (Homo sapiens, UniProt P14416); test: Dopamine D2L receptor binding ([125I] iodospiperone), basis of selectivity Ki(D2)/Ki(D3); details: for Selectivity [Ki(D2)/Ki(D3)]: D2L vs D3; for D2/D3: Table 7, compounds of formula IIa
T1 construct: expressed in transfected cells; membranes)
T1 sequence (P14416 whole entry, canonical isoform): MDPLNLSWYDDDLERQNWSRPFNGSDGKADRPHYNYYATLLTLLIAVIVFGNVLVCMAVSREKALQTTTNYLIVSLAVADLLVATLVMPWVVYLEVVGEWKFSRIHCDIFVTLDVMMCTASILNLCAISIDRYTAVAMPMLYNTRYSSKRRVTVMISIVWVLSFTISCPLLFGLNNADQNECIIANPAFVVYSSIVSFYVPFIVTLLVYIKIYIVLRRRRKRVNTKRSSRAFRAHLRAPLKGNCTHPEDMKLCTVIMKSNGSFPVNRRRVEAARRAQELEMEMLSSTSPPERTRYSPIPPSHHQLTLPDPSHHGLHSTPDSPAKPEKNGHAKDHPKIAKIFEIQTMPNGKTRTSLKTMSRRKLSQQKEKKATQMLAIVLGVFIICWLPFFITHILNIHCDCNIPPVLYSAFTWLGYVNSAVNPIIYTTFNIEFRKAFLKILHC
Experimental: The substance to be tested was either dissolved in methanol/Chremophor® (BASF-AG) or in dimethyl sulfoxide and then diluted with water to the desired concentration. […] Each assay mixture was run in triplicate. The incubation buffer contained 50 mM tris, 120 mM NaCl, 5 mM KCl, 2 mM CaCl2, 2 mM MgCl2 and 0.1% bovine serum albumin. The buffer was adjusted to pH 7.4 with HCl. Measurement and Analysis: After having been incubated at 25° C. for 60 minutes, the assay mixtures were filtered through a Wathman GF/B glass fiber filter under vacuum using a cell collecting device. The filters were transferred to scintillation viols using a filter transfer system. After 4 ml of Ultima Gold® (Packard) have been added, the samples were shaken for one hour and the radioactivity was then counted in a Beta-Counter (Packard, Tricarb 2000 or 2200CA). The cpm values were converted into dpm using a standard quench series and the program belonging to the instrument. The inhibition curves were analyzed by means of iterative nonlinear regression analysis using the Statistical Analysis System (SAS) which is similar to the “LIGAND” program described by Munson and Rodbard.

[3] = molecular target: T2, human dopamine D3 receptors (Homo sapiens, UniProt P35462); test: Dopamine D3 receptor binding ([125I]-iodosulpride displacement)
T2 construct: expressed in transfected cells; membranes)
T2 sequence (P35462 whole entry): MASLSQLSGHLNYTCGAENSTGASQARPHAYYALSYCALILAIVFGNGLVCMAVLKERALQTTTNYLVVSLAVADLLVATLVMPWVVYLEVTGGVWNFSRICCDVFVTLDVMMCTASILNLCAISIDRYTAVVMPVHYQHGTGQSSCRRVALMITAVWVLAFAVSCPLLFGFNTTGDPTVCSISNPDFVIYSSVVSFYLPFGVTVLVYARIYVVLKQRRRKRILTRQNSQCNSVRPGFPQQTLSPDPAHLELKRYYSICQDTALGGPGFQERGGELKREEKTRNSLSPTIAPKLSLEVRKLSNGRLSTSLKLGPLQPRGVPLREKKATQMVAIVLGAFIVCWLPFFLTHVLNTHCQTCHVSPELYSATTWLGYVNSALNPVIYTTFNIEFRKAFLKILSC
Experimental: The substance to be tested was either dissolved in methanol/Chremophor® (BASF-AG) or in dimethyl sulfoxide and then diluted with water to the desired concentration.
Each assay mixture was run in triplicate.
The incubation buffer contained 50 mM tris, 120 mM NaCl, 5 mM KCl, 2 mM CaCl2, 2 mM MgCl2 and 0.1% bovine serum albumin, 10 μM quinolone and 0.1% ascorbic acid (prepared fresh daily). The buffer was adjusted to pH 7.4 with HCl.
Measurement and Analysis:
After having been incubated at 25° C. for 60 minutes, the assay mixtures were filtered through a Wathman GF/B glass fiber filter under vacuum using a cell collecting device. The filters were transferred to scintillation viols using a filter transfer system. After 4 ml of Ultima Gold® (Packard) have been added, the samples were shaken for one hour and the radioactivity was then counted in a Beta-Counter (Packard, Tricarb 2000 or 2200CA). The cpm values were converted into dpm using a standard quench series and the program belonging to the instrument.
The inhibition curves were analyzed by means of iterative nonlinear regression analysis using the Statistical Analysis System (SAS) which is similar to the “LIGAND” program described by Munson and Rodbard.

[4] = Table 5, membranes of HEK-293 cells, read-out: Ki D3
[5] = Table 6, membranes of HEK-293 cells, read-out: ki D3
[6] = Table 7, compounds of formula IIa, read-out: D3
[7] = compounds II, read-out: Ki D3 values

| SMILES | Selectivity [Ki(D2)/Ki(D3)] ([2]; Table 6) | Ki [3, 5] | D2/D3 [2] | Ki [3, 6] | further results |
| --- | --- | --- | --- | --- | --- |
| Cc1nnc([S+]([O-])CCCN2CCN(c3cc(C(C)(C)C)nc(C(C)(C)C)n3)CC2)n1C (racemic) [Example 1, 2,4-Di-tert-butyl-6-{4-[3-(4,5-dimethyl-4H-[1,2,4]triazole-3-sulfinyl)-propyl]-piperazin-1-yl}-pyrimidine] | – | – | – | – | Brain level ([1]; Table 5): 1670 ng/g; Selectivity [Ki(D2)/Ki(D3)] ([2]; Table 5): 26; Ki [3, 4]: 19.5 nM |
| Cc1nnc(S(=O)(=O)CCCN2CCN(c3cc(C(C)(C)C)nc(C(C)(C)C)n3)CC2)n1C [Example 4, 2,4-Di-tert-butyl-6-{4-[3-(4,5-dimethyl-4H-[1,2,4]triazole-3-sulfonyl)-propyl]-piperazin-1-yl}-pyrimidine] | – | – | – | – | Brain level ([1]; Table 5): 1920 ng/g; Selectivity [Ki(D2)/Ki(D3)] ([2]; Table 5): 34; Ki [3, 4]: 6.1 nM |
| Cl.Cn1cnc([S+]([O-])CCCN2CCN(c3cc(C(F)(F)F)nc(C(C)(C)C)n3)CC2)n1 (stereo not shown) [Example 21, 2-tert-Butyl-4-{4-[3-(1-methyl-1H-[1,2,4]triazole-3-sulfinyl)-propyl]-piperazin-1-yl}-6-trifluoromethyl-pyrimidine hydrochloride] | 18 | 16.6 nM | – | – | – |
| CC(C)(C)c1cc(N2CCN(CCCS(=O)(=O)c3nc[nH]n3)CC2)nc(C(C)(C)C)n1 [Example 22, 2,4-Di-tert-butyl-6-{4-[3-(1H-[1,2,4]triazole-3-sulfonyl)-propyl]-piperazin-1-yl}-pyrimidine] | 19 | 47.4 nM | – | – | – |
| CC(C)c1cc(N2CCN(CCCS(=O)(=O)c3nncn3C)CC2)nc(C(C)(C)C)n1 [Example 23, 2-tert-Butyl-4-{4-[3-(4-methyl-1H-[1,2,4]triazole-3-sulfonyl)-propyl]-piperazin-1-yl}-6-isopropyl-pyrimidine] | 49 | 59.8 nM | – | – | – |
| Cn1cnnc1S(=O)(=O)CCCN1CCN(c2cc(C3CCCC3)nc(C(C)(C)C)n2)CC1 [Example 24, 2-tert-Butyl-4-{4-[3-(4-methyl-1H-[1,2,4]triazole-3-sulfonyl)-propyl]-piperazin-1-yl}-6-cyclopentyl-pyrimidine] | 20 | 7.5 nM | – | – | – |
| Cn1cnnc1[S+]([O-])CCCN1CCN(c2cc(C3CCCC3)nc(C(C)(C)C)n2)CC1 (stereo not shown) [Example 25, 2-tert-Butyl-4-{4-[3-(4-methyl-1H-[1,2,4]triazole-3-sulfinyl)-propyl]-piperazin-1-yl}-6-cyclopentyl-pyrimidine] | 30 | 23.3 nM | – | – | – |
| CCCc1cc(N2CCN(CCCS(=O)(=O)c3nncn3C)CC2)nc(C(C)(C)C)n1 [Example 26, 2-tert-Butyl-4-{4-[3-(4-methyl-1H-[1,2,4]triazole-3-sulfonyl)-propyl]-piperazin-1-yl}-6-propyl-pyrimidine] | 33 | 44.6 nM | – | – | – |
| Cn1cnc(S(=O)(=O)CCCN2CCN(c3cc(C(C)(C)C)nc(C(C)(C)C)n3)CC2)n1 [Example 27, 2,6-di-tert-Butyl-4-{4-[3-(1-methyl-1H-[1,2,4]triazole-3-sulfonyl)-propyl]-piperazin-1-yl}-pyrimidine] | 24 | 9.7 nM | – | – | – |
| CCCc1cc(N2CCN(CCC[S+]([O-])c3ncn(C)n3)CC2)nc(C(C)(C)C)n1.Cl (stereo not shown) [Example 28, 2-tert-Butyl-4-{4-[3-(1-methyl-1H-[1,2,4]triazole-3-sulfinyl)-propyl]-piperazin-1-yl}-6-propyl-pyrimidine hydrochloride] | 158 | 9.9 nM | – | – | – |
| CCCc1cc(N2CCN(CCCS(=O)(=O)c3ncn(C)n3)CC2)nc(C(C)(C)C)n1 [Example 29, 2-tert-Butyl-4-{4-[3-(1-methyl-1H-[1,2,4]triazole-3-sulfonyl)-propyl]-piperazin-1-yl}-6-propyl-pyrimidine] | 59 | 20.3 nM | – | – | – |
| Cl.Cn1cnc([S+]([O-])CCCN2CCN(c3cc(C(C)(C)C)nc(C(C)(C)C)n3)CC2)n1 (stereo not shown) [Example 30, 2,6-di-tert-Butyl-4-{4-[3-(1-methyl-1H-[1,2,4]triazole-3-sulfinyl)-propyl]-piperazin-1-yl}-pyrimidine hydrochloride] | 51 | 3.5 nM | – | – | – |
| CC(C)(C)c1nc(N2CCN(CCCS(=O)(=O)c3nc[nH]n3)CC2)cc(C2(C)CC2)n1 [Example 31, 2-tert-butyl-6-{4-[3-(1H-[1,2,4]triazole-3-sulfonyl)-propyl]-piperazin-1-yl}-6-(1-methyl)cyclopropyl-pyrimidine] | 37 | 22.6 nM | – | – | – |
| COCc1nnc(SCCCN2CCN(c3cc(C(F)F)nc(C(C)(C)C)n3)CC2)n1C.Cl [c.4, 2-tert-Butyl-4-{4-[3-(4-methyl-5-methoxymethyl-4H-[1,2,4]triazol-3-ylsulfanyl)-propyl]-piperazin-1-yl}-6-difluoromethyl-pyrimidine hydrochloride] | – | – | 96 | 1.5 nM | Brain level ([1]; Table 7): 290 ng/g; Ki [3, 7]: < 5 nM |
| Cl.Cn1c(SCCCN2CCN(c3cc(C(F)F)nc(C(C)(C)C)n3)CC2)nnc1C(C)(C)C [c.7, 2-tert-Butyl-4-{4-[3-(4-methyl-5-tert-butyl-4H-[1,2,4]triazol-3-ylsulfanyl)-propyl]-piperazin-1-yl}-6-difluoromethyl-pyrimidine hydrochloride] | – | – | 115 | 1.2 nM | Ki [3, 7]: < 5 nM |
| CCCc1cc(N2CCN(CCCSc3nnc(CC)n3C)CC2)nc(C(C)(C)C)n1.Cl [c.11, 2-tert-Butyl-4-{4-[3-(4-methyl-5-ethyl-4H-[1,2,4]triazol-3-ylsulfanyl)-propyl]-piperazin-1-yl}-6-propyl-pyrimidine hydrochloride] | – | – | 470 | 1.7 nM | Brain level ([1]; Table 7): 840 ng/g |
| CCCc1cc(N2CCN(CCCSc3nnc(COC)n3C)CC2)nc(C(C)(C)C)n1.Cl [c.12, 2-tert-Butyl-4-{4-[3-(4-methyl-5-methoxymethyl-4H-[1,2,4]triazol-3-ylsulfanyl)-propyl]-piperazin-1-yl}-6-propyl-pyrimidine hydrochloride] | – | – | 143 | 2.4 nM | Brain level ([1]; Table 7): 780 ng/g; Ki [3, 7]: < 5 nM |
| Cl.Cn1c(SCCCN2CCN(c3cc(C(F)(F)F)nc(C(C)(C)C)n3)CC2)nnc1C(F)(F)F [c.13, 2-tert-Butyl-4-{4-[3-(4-methyl-5-trifluoromethyl-4H-[1,2,4]triazol-3-ylsulfanyl)-propyl]-piperazin-1-yl}-6-trifluoromethyl-pyrimidine hydrochloride] | – | – | 157 | 1.3 nM | – |
| Cc1nnc(SCCCN2CCN(c3cc(C(F)(F)F)nc(C(C)(C)C)n3)CC2)n1C.Cl [c.14, 2-tert-Butyl-4-{4-[3-(4-methyl-5-methyl-4H-[1,2,4]triazol-3-ylsulfanyl)-propyl]-piperazin-1-yl}-6-trifluoromethyl-pyrimidine hydrochloride] | – | – | 135 | 1.5 nM | – |
| COCc1nnc(SCCCN2CCN(c3cc(C(F)(F)F)nc(C(C)(C)C)n3)CC2)n1C.Cl [c.16, 2-tert-Butyl-4-{4-[3-(4-methyl-5-methoxymethyl-4H-[1,2,4]triazol-3-ylsulfanyl)-propyl]-piperazin-1-yl}-6-trifluoromethyl-pyrimidine hydrochloride] | – | – | 237 | 0.65 nM | Ki [3, 7]: < 5 nM |
| CC(=O)O.Cn1c(SCCCN2CCN(c3cc(C(F)(F)F)nc(C(C)(C)C)n3)CC2)nnc1C1CCC1 [c.18, 2-tert-Butyl-4-{4-[3-(4-methyl-5-cyclobutyl-4H-[1,2,4]triazol-3-ylsulfanyl)-propyl]-piperazin-1-yl}-6-trifluoromethyl-pyrimidine acetate] | – | – | 134 | 2.9 nM | Ki [3, 7]: < 5 nM |
